Data taken from US6365634B1, “Naturally occurring compounds and their derivatives as cyclooxygenase 2 and/or 5-lipoxygenase inhibitors” (C-P Technology Limited Partnership, priority 1997, dated 2002).

Key:
[1] = system: human keratinocyte PGE2 production; experiment: Cell-based COX II assay: PGE2 production by cultured human foreskin keratinocytes (enzyme immunoassay); details: 5, 1.0, 0.2 and 0.04 uM, 24 hours, high calcium medium
Experimental: The ability of dehydroabietic acid methyl ester to inhibit the enzymatic activities of COX II and 5-LO was tested using primary cultures of human foreskin keratinocytes. Briefly, human keratinocytes were plated in 48-well plates (Nunc) at an initial density of 2.5×10^4 cells per well. The cultures were maintained in medium 154XP (Cascade Biologics) to which human keratinocyte growth supplement (Cascade Biologics) was added. Cultures were plated initially in medium 154XP containing 0.07 mM CaCl2. Upon reaching […] confluency, the media was exchanged with high calcium medium 154XP containing 1.2 mM CaCl2. Previous studies have shown that an increase in extracellular Ca^2+concentration induces the differentiation of cultured keratinocytes with a concomitant increase in the expression of COX II protein and COX II mRNA with no apparent effect on COX I expression (Leong, J., Hughes-Fulford, M., Rakhlin, A., Maclouf, J., and Goldyne, M., (1996), Exp. Cell Res., V224, p79). Twenty-four hours after switching to the high calcium media, duplicate wells were treated with dehydroabietic acid methyl ester serially diluted in ethanol to produce final concentrations of 5, 1.0, 0.2, and 0.04 uM. Companion cultures were treated with an identical dilution series of the Merck COX II-specific inhibitor DFU. Twenty-four hours later, samples were removed from each treated well (as well as vehicle-treated control wells) and the amount of PGE2 (a product of the COX II pathway) was quantified using a PGE2-specific enzyme immunoassay (Cayman Chemical). ), As was done with the previously described biochemical assays (COX I, COX II, 5-LO, and 15-LO), the percent inhibition was calculated based on a comparison between vehicle treated control cultures and cultures treated with dehydroabietic acid methyl ester or DFU (see Fractionation and Bioassay Analysis of Fractions Derived from Extract-8 above).
The ability of 4-cumylphenol to inhibit the enzymatic activity of COX II was tested using primary cultures of human foreskin keratinocytes. These cell studies were performed in an identical manner to the studies described in Example 6. […] Twenty-four hours later, samples were removed from each treated well (as well as vehicle-treated control wells) and the amount of PGE2 (a product of the COX II pathway) was quantified using a PGE2-specific enzyme immunoassay (Cayman Chemical). ), as was done with the previously described COX I, COX II, and 15-LO biochemical assays (see Example 2B). The percent inhibition was calculated based on a comparison between vehicle treated control cultures and cultures treated with 4-cumylphenol or DFU. […]
To evaluate the biological activities of 3-methoxy aniline, sufficient quantities of the compound were synthesized as detailed in Example 1C (above). […]

human keratinocytes [2] = experiment: Lactate dehydrogenase (LDH) release toxicity assay; type: cell-based; details: highest value of any culture treated with 5, 1.0, 0.2 or 0.04 uM
Experimental: To address the possibility that the inhibition of both PGE2 and LTB4 production by human keratinocytes treated with dehydroabietic acid methyl ester was […], a cell lactate dehydrogenase toxicity assay (Fisher Scientific) was performed. Briefly, lactate dehydrogenase (LDH) is found intracellularly and is released only in response to toxic stimuli and/or cell death. The amount of LDH released into the media of cultured cells is indicative of the degree of toxicity occurring in that culture. To do the assay, 48-well plates of cultured human keratinocytes (as described above for the PGE2 assay) were prepared and treated with the same concentrations of dehydroabietic acid methyl ester as described above for the PGE2 and LTB4 assays. One hour prior to harvesting culture media samples from wells treated with dehydroabietic acid methyl ester, duplicate wells were treated with a cell lysis buffer (Fisher Scientific) that caused 100% cell death to occur in the treated wells. After culture media samples were collected from all wells, the amount of LDH present in each was determined using a colorometric assay (Fisher Scientific). […] The amount of LDH released into the media of cultures treated with dehydroabietic acid methyl ester as well as vehicle-control media was determined using the colorometric assay and expressed as a percentage of that released by the 100% cell death wells.
To address the possibility that the inhibition of PGE2 production by human keratinocytes treated with 4-cumylphenol was due to toxicity, a cell lactate dehydrogenase toxicity assay (Fisher Scientific) was performed. […] After culture media samples were collected from all wells, the amount of LDH present in each was determined using a colorometric assay (Fisher Scientific). […] The amount of LDH released into the media of cultures treated with dehydroabietic acid methyl ester as well as vehicle-control media was determined using the colorometric assay and expressed as a percentage of that released by the 100% cell death wells. […]

human keratinocytes [3] = experiment: Microscopic examination of treated keratinocyte cultures; type: cell-based
human recombinant COX II = biological target: T1, human recombinant COX II (Homo sapiens, UniProt P35354); experiment: COX II biochemical assay (3H-arachidonic acid conversion, TLC quantitation); details: read-out: Percent Inhibition of COX II
T1 construct: purchased Oxford Chemical
T1 sequence (P35354 18-604): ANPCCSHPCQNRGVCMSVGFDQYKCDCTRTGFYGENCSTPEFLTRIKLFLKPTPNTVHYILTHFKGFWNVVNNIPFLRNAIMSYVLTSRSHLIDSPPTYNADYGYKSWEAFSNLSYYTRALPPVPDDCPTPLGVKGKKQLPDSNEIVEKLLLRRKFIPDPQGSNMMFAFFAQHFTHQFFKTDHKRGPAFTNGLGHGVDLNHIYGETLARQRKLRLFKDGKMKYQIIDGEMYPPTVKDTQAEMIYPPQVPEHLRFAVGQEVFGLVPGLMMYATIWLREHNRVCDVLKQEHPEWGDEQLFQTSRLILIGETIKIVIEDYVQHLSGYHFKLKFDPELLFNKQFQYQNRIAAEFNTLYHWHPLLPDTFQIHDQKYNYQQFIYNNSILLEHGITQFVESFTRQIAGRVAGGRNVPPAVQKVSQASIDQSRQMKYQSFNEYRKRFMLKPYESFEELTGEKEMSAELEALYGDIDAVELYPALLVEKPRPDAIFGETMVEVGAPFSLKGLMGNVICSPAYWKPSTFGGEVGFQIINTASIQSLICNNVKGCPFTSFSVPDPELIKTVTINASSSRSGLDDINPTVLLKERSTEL
Experimental: Two units of recombinant COX II enzyme (corresponding to 0.8 ug total protein) was added followed by 5 uL aliquots of the peat bog extracts yielding a final concentration of the peat extracts of 25 ug/ml. All samples were run in duplicate. […] Reactions were initiated by the addition of ^3H-arachidonic acid (DuPont-NEN) at a final concentration of 50 uM. The reactions were maintained for 5 minutes at 37° C. and stopped by the addition of ice-cold methanol/acetic acid (10:1 v/v).
The assessment of cyclooxygenase activity (both COX I and II) in the presence and absence of the peat bog extracts was based on the quantitation of tlhe radiolabeled arachidonic acid metabolites prostaglandin A2 (PGA2), PGE2, and PGF2-alpha. To do this, a 50 uL sample of each reaction solution was separated via TLC on LK6DF silica plates co-spotted with arachidonic acid, PGA2, and PGF2-alpha and developed in hexane/isopropyl alcohol/ acetic acid (85:15:1 v/v). The bands were visualized by UV-vis or I2 staining and scraped into scintillation vials for quantitation. […] The total enzyme activity (At), the corrected enzyme activity in the presence of an inhibitor (Ai), and % inhibition were calculated by the following equations:
3) Percent Inhibition=100 (1−Ai/ At)

[4] = system: human keratinocyte LTB4 production; experiment: Cell-based 5-LO assay: LTB4 production by cultured human keratinocytes (enzyme immunoassay); details: 5, 1.0, 0.2 and 0.04 uM, 24 hours, high calcium medium
Source text: In addition to assessing the effect of dehydroabietic acid methyl ester on the production of PGE2 by human keratinocytes, the human keratinocyte culture system was also used to assess for the inhibition of LTB4 production. Keratinocytes have not been used as extensively as other cell types for 5-LO studies, however, human keratinocytes produce appreciable amounts of LTB4 and production of this eicosanoid by cultured keratinocytes is inhibited by known inhibitors of 5-LO (see FIG. 11). To assess for inhibition of LTB4 production, human keratinocytes were cultured as described above. Following introduction of the high calcium media, the identical dilution series of dehydroabietic acid methyl ester as described above in the PGE2 study was added to duplicate wells of keratinocytes. Twenty-four hours later culture media samples were removed from each well and the amount of LTB4 in each sample determined using an enzyme immunoassay specific for LTB4 (Cayman Chemical). As was done with the PGE2 assay described above, the percent inhibition was calculated based on a comparison between vehicle treated control cultures and cultures treated with dehydroabietic acid methyl ester or Rev 5901 (a specific 5-LO inhibitor; Cayman Chemical).

`CC1(C)OC(=O)C(c2cccc(F)c2)=C1c1ccc(S(C)(=O)=O)cc1` [DFU, reference compound] was tested, and the “inhibition of PGE2 production by cultured human keratinocytes” value [1] was “Dose-dependent inhibition”.
`COc1cccc(NC(=O)C(C)(C)C)c1` [Fraction 3-M-A, propanamide, N-(3-methoxyphenyl)2,2-dimethyl] was tested, and the “inhibition of PGE2 production by cultured human keratinocytes” value [1] was “inhibited the production of PGE2”, the “percent toxicity (LDH released) versus the 100% cell death control” value (human keratinocytes [2]) was at most 10% and the “toxicity when treated cultures were examined microscopically” value (human keratinocytes [3]) was “lack of toxicity”.
`CS(=O)(=O)Nc1ccc([N+](=O)[O-])cc1Oc1ccccc1` [Nimesulide, reference compound] showed an inhibition at 250 µM (human recombinant COX II) of 13.3%.
`CCCCCC(O)c1cccc(OCc2ccc3ccccc3n2)c1` (stereo not drawn) [REV 5901, reference compound] was tested, and the “inhibition of LTB4 production by cultured human keratinocytes” value [4] was “dose-dependent inhibition”.
